Target: T1, Recombinant human TPH1 (MBP tagged) (Homo sapiens, UniProt P17752)
T1 construct: cloning full length human TPH1 cDNA in to a bacterial pMAL-c5E expression vector; made in house; host or cells: E. coli BL21 (DE3)
T1 sequence (P17752 1-444): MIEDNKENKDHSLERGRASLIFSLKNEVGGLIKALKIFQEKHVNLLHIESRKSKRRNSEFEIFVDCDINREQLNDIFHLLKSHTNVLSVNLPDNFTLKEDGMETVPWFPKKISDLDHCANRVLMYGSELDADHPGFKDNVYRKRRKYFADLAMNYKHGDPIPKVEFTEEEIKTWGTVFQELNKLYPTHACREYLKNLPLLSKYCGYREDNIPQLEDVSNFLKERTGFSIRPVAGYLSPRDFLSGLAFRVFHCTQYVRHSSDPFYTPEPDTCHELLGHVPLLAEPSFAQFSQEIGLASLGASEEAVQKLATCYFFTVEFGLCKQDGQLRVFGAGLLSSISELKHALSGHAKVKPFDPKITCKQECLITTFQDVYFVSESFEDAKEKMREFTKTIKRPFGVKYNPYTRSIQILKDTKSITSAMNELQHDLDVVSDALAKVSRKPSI
Experiment: TPH1 in vitro inhibition assay (kinetic fluorescence)
Assay type: biochemical
Conditions: TPH1 Range (TPH1 inhibition IC50)
Summary of the method: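 Final mix: 15 nM MBP-TPH1, 30 μM Trp, 36 μM 6-methyltetrahydropterin, 25 μM ferrous ammonium sulfate, 50 mM MES pH 7.1, 1% DMSO, room temperature.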

Row | Structure (SMILES) | IC50
1 | Nc1nc(O[C@H](c2ccc(-c3ccc4ncc(F)cc4c3)cc2)C(F)(F)F)cc(N2CCC3(CC2)CN[C@H](C(=O)O)C3)n1 [Example 55dc, (S)-8-(2-amino-6-((R)-2,2,2-trifluoro-1-(4-(3-fluoroquinolin-6-yl)phenyl)ethoxy)pyrimidin-4-yl)-2,8-diazaspiro[4.5]decane-3-carboxylic acid] | < 0.05 µM
2 | Cc1ccn(-c2cc(-c3ccc(C)c(C)c3)ccc2[C@H](Oc2cc(N3CCC4(CC3)CN[C@@H](C(=O)O)C4)nc(N)n2)C(F)(F)F)n1 [Example 54l, (R)-8-(2-amino-6-((S)-1-(3′,4′-dimethyl-3-(3-methyl-1H-pyrazol-1-yl)-[1,1′-biphenyl]-4-yl)-2,2,2-trifluoroethoxy)pyrimidin-4-yl)-2,8-diazaspiro[4.5]decane-3-carboxylic acid] | 3 to 10 µM
3 | Nc1nc(O[C@H](c2ccc(Cl)cc2-c2cccc(F)c2)C(F)(F)F)cc(N2CCC3(CC2)CN[C@H](C(=O)O)C3)n1 [Example 34as, (S)-8-(2-amino-6-((R)-1-(5-chloro-3′-fluoro-[1,1′-biphenyl]-2-yl)-2,2,2-trifluoroethoxy)pyrimidin-4-yl)-2,8-diazaspiro[4.5]decane-3-carboxylic acid] | < 0.05 µM

Same assay, conditions: read-out: TPH1 Range (TPH1 inhibition IC50)

Row | Structure (SMILES) | IC50
4 | Cc1ccn(-c2cc(Cl)ccc2[C@@H](Oc2nc(N)nc(N3CCC4(CC3)CNC(C(=O)O)C4)n2)C(F)(F)F)n1 (stereo partly drawn) [Example 40, 8-(4-amino-6-((R)-1-(4-chloro-2-(3-methyl-H-pyrazol-1-yl)phenyl)-2,2,2-trifluoroethoxy)-1,3,5-triazin-2-yl)-2,8-diazaspiro[4.5]decane-3-carboxylic acid] | 0.3 to 3 µM
5 | Cc1ccn(-c2cc(-c3ccc(C(=O)NCCN4CCOCC4)cc3)ccc2[C@@H](Oc2cc(N3CCC4(CC3)CN[C@H](C(=O)O)C4)nc(N)n2)C(F)(F)F)n1 [Example 1ce, (S)-8-(2-amino-6-((R)-2,2,2-trifluoro-1-(3-(3-methyl-1H-pyrazol-1-yl)-4′-((2-morpholinoethyl)carbamoyl)-[1,1′-biphenyl]-4-yl)ethoxy)pyrimidin-4-yl)-2,8-diazaspiro[4.5]decane-3-carboxylic acid] | < 0.05 µM
6 | Cc1ccn(-c2cc(C3=CCOCC3)ccc2[C@@H](Oc2cc(N3CCC4(CC3)CN[C@H](C(=O)O)C4)nc(N)n2)C(F)(F)F)n1 [Example 1j, (S)-8-(2-amino-6-((R)-1-(4-(3,6-dihydro-2H-pyran-4-yl)-2-(3-methyl-1H-pyrazol-1-yl)phenyl)-2,2,2-trifluoroethoxy)pyrimidin-4-yl)-2,8-diazaspiro[4.5]decane-3-carboxylic acid] | 0.05 to 0.3 µM
7 | CN(C)C(=O)c1cccc(-c2cc(Cl)ccc2[C@@H](Oc2cc(N3CCC4(CC3)CN[C@H](C(=O)O)C4)nc(N)n2)C(F)(F)F)c1 [Example 34cn, (S)-8-(2-amino-6-((R)-1-(5-chloro-3′-(dimethylcarbamoyl)-[1,1′-biphenyl]-2-yl)-2,2,2-trifluoroethoxy)pyrimidin-4-yl)-2,8-diazaspiro[4.5]decane-3-carboxylic acid] | 0.05 to 0.3 µM
8 | Cc1ccc(-c2ccc([C@@H](Oc3cc(N4CCC5(CC4)CN[C@H](C(=O)O)C5)nc(N)n3)C(F)(F)F)c(-n3ccc(C)n3)c2)cc1 [Example 1ae, (S)-8-(2-amino-6-((R)-2,2,2-trifluoro-1-(4′-methyl-3-(3-methyl-1H-pyrazol-1-yl)-[1,1′-biphenyl]-4-yl)ethoxy)pyrimidin-4-yl)-2,8-diazaspiro[4.5]decane-3-carboxylic acid] | < 0.05 µM
9 | COc1cc(C#N)cc(-c2ccc([C@@H](Oc3cc(N4CCC5(CC4)CN[C@H](C(=O)O)C5)nc(N)n3)C(F)(F)F)cc2)c1 [Example 55aa, (S)-8-(2-amino-6-((R)-1-(3′-cyano-5′-methoxy-[1,1′-biphenyl]-4-yl)-2,2,2-trifluoroethoxy)pyrimidin-4-yl)-2,8-diazaspiro[4.5]decane-3-carboxylic acid] | 0.05 to 0.3 µM
10 | C/C=C/c1ccc([C@@H](Oc2cc(N3CCC4(CC3)CN[C@H](C(=O)O)C4)nc(N)n2)C(F)(F)F)c(-c2cccc(S(C)(=O)=O)c2)c1 [Example 53, (S)-8-(2-Amino-6-((R)-2,2,2-trifluoro-1-(3′-(methylsulfonyl)-5-((E)-prop-1-en-1-yl)-[1,1′-biphenyl]-2-yl)ethoxy)pyrimidin-4-yl)-2,8-diazaspiro[4.5]decane-3-carboxylic acid] | < 0.05 µM
11 | Cc1ccn(-c2cc(-c3ccccc3)ccc2[C@@H](Oc2cc(N3CCC4(CC3)CN[C@H](C(=O)O)C4)nc(N)n2)C(F)(F)F)n1 [Example 1u, (S)-8-(2-amino-6-((R)-2,2,2-trifluoro-1-(3-(3-methyl-H-pyrazol-1-yl)-[1,1′-biphenyl]-4-yl)ethoxy)pyrimidin-4-yl)-2,8-diazaspiro[4.5]decane-3-carboxylic acid] | < 0.05 µM
12 | Cc1ccn(-c2cc(-c3ccc(F)c(C(F)(F)F)c3)ccc2[C@@H](Oc2cc(N3CCC4(CC3)CN[C@H](C(=O)O)C4)nc(N)n2)C(F)(F)F)n1 [Example 1aw, (S)-8-(2-amino-6-((R)-2,2,2-trifluoro-1-(4′-fluoro-3-(3-methyl-1H-pyrazol-1-yl)-3′-(trifluoromethyl)-[1,1′-biphenyl]-4-yl)ethoxy)pyrimidin-4-yl)-2,8-diazaspiro[4.5]decane-3-carboxylic acid] | 0.05 to 0.3 µM
13 | Nc1nc(O[C@H](c2ccc(-c3ccc(C(=O)N4CCNCC4)cc3)cc2)C(F)(F)F)cc(N2CCC3(CC2)CN[C@H](C(=O)O)C3)n1 [Example 55dl, (S)-8-(2-amino-6-((R)-2,2,2-trifluoro-1-(4′-(piperazine-1-carbonyl)-[1,1′-biphenyl]-4-yl)ethoxy)pyrimidin-4-yl)-2,8-diazaspiro[4.5]decane-3-carboxylic acid] | 0.05 to 0.3 µM
14 | Cc1ccn(-c2cc(-c3cc(Cl)cc(Cl)c3)ccc2[C@@H](Oc2cc(N3CCC4(CC3)CN[C@H](C(=O)O)C4)nc(N)n2)C(F)(F)F)n1 [Example 1bi, (S)-8-(2-amino-6-((R)-1-(3′,5′-dichloro-3-(3-methyl-1H-pyrazol-1-yl)-[1,1′-biphenyl]-4-yl)-2,2,2-trifluoroethoxy)pyrimidin-4-yl)-2,8-diazaspiro[4.5]decane-3-carboxylic acid] | < 0.05 µM
15 | Cc1cc(-c2cc(Cl)ccc2[C@@H](Oc2cc(N3CCC4(CC3)CN[C@H](C(=O)O)C4)nc(N)n2)C(F)(F)F)cc(C)c1Cl [Example 34bc, (S)-8-(2-amino-6-((R)-1-(4′,5-dichloro-3′,5′-dimethyl-[1,1′-biphenyl]-2-yl)-2,2,2-trifluoroethoxy)pyrimidin-4-yl)-2,8-diazaspiro[4.5]decane-3-carboxylic acid] | 0.05 to 0.3 µM
16 | Cc1ccn(-c2cc(-c3cccc(C(C)(C)C)c3)ccc2[C@@H](Oc2cc(N3CCC4(CC3)CN[C@H](C(=O)O)C4)nc(N)n2)C(F)(F)F)n1 [Example 1az, (S)-8-(2-amino-6-((R)-1-(3′-(tert-butyl)-3-(3-methyl-1H-pyrazol-1-yl)-[1,1′-biphenyl]-4-yl)-2,2,2-trifluoroethoxy)pyrimidin-4-yl)-2,8-diazaspiro[4.5]decane-3-carboxylic acid] | 0.05 to 0.3 µM
17 | Cc1ccc(-c2ccc([C@@H](Oc3cc(N4CCC5(CC4)CN[C@H](C(=O)O)C5)nc(N)n3)C(F)(F)F)c(-c3ccccc3)c2)cc1C [Example 54f, (S)-8-(2-amino-6-((R)-1-(3,4-dimethyl-[1,1′:3′,1″-terphenyl]-4′-yl)-2,2,2-trifluoroethoxy)pyrimidin-4-yl)-2,8-diazaspiro[4.5]decane-3-carboxylic acid] | < 0.05 µM
18 | CCCOc1ccc(-c2ccc([C@@H](Oc3cc(N4CCC5(CC4)CN[C@H](C(=O)O)C5)nc(N)n3)C(F)(F)F)c(-n3ccc(C)n3)c2)cc1F [Example 1bz, (S)-8-(2-amino-6-((R)-2,2,2-trifluoro-1-(3′-fluoro-3-(3-methyl-1H-pyrazol-1-yl)-4′-propoxy-[1,1′-biphenyl]-4-yl)ethoxy)pyrimidin-4-yl)-2,8-diazaspiro[4.5]decane-3-carboxylic acid] | < 0.05 µM
19 | CCOc1ccc(-c2cc(Cl)ccc2[C@@H](Oc2cc(N3CCC4(CC3)CN[C@H](C(=O)O)C4)nc(N)n2)C(F)(F)F)cc1F [Example 34az, (S)-8-(2-amino-6-((R)-1-(5-chloro-4′-ethoxy-3′-fluoro-[1,1′-biphenyl]-2-yl)-2,2,2-trifluoroethoxy)pyrimidin-4-yl)-2,8-diazaspiro[4.5]decane-3-carboxylic acid] | 0.3 to 3 µM
20 | Cc1ccn(-c2cc(C(N)=O)ccc2[C@@H](Oc2cc(N3CCC4(CC3)CN[C@H](C(=O)O)C4)nc(N)n2)C(F)(F)F)n1 [Example 15, (S)-8-(2-amino-6-((R)-1-(4-carbamoyl-2-(3-methyl-H-pyrazol-1-yl)phenyl)-2,2,2-trifluoroethoxy)pyrimidin-4-yl)-2,8-diazaspiro[4.5]decane-3-carboxylic acid] | 0.05 to 0.3 µM
21 | CCCOc1ccc(-c2ccc([C@@H](Oc3cc(N4CCC5(CC4)CN[C@H](C(=O)O)C5)nc(N)n3)C(F)(F)F)c(-c3ccccc3)c2)cc1 [Example 54c, (S)-8-(2-amino-6-((R)-2,2,2-trifluoro-1-(4-propoxy-[1,1′:3′,1″-terphenyl]-4′-yl)ethoxy)pyrimidin-4-yl)-2,8-diazaspiro[4.5]decane-3-carboxylic acid] | < 0.05 µM

Source: patent US11759462B2, “Spirocyclic compounds as tryptophan hydroxylase inhibitors” (priority 2013, dated 2023)
